ChEMBL document CHEMBL4219236, “Synthesis of some novel dimethine, bis-dimethine cyanine dyes and octacosamethine cyanine dyes endowed with promising biological potency against (HepG2), (Hela), (MCF-7), (MIA), (SN12C) and (H358) cell lines” (Bioorg Med Chem Lett, 2018)
In brackets after ≈: the same amount, converted by molar mass.

Key:
Type in all cases: functional, cell-based
HepG2 = assay: Cytotoxicity against human HepG2 cells assessed as decrease in cell viability after 96 hrs; details: HepG2, 96 h
SN12C = assay: Cytotoxicity against human SN12C cells assessed as decrease in cell viability after 96 hrs
NCI-H358 = assay: Cytotoxicity against human NCI-H358 cells assessed as decrease in cell viability after 96 hrs; details: NCI-H358, 96 h
MCF7 = assay: Cytotoxicity against human MCF7 cells assessed as decrease in cell viability after 96 hrs; details: MCF7, 96 h
MIA PaCa-2 = assay: Cytotoxicity against human MIAPaCa2 cells assessed as decrease in cell viability after 96 hrs; details: MIA PaCa-2, 96 h
HeLa = assay: Cytotoxicity against human HeLa cells assessed as decrease in cell viability after 96 hrs

SMILES | IC50 (HepG2) [µg/mL] | IC50 (SN12C) [µg/mL] | IC50 (NCI-H358) [µg/mL] | IC50 (MCF7) [µg/mL] | IC50 (MIA PaCa-2) [µg/mL] | IC50 (HeLa) [µg/mL]
O=CC1=Cc2cc3cc(/C=C(\c4ccccc4)c4cccc[n+]4C4CCC([n+]5ccccc5/C(=C/c5cc6cc7nc(cc8ccc(cc9nc(cc5[nH]6)C=C9)[nH]8)C(C=O)=C7)c5ccccc5)CC4)c(cc4nc(cc5ccc(cc1n2)[nH]5)C=C4)[nH]3.[Br-].[Br-] (configuration not stated) | 21 | 20 | 15.2 | 16 | 20 | 21
O=S(=O)([O-])c1ccccc1/C=C(\c1ccccc1)c1cccc[n+]1C1CCC([n+]2ccccc2Cc2ccccc2)CC1.[Br-].[Br-].[Na+] (configuration not stated) | 32.2 | 25 | 30 | 29 | 50 | 39.6
C(=C(/c1ccccc1)c1cccc[n+]1C1CCC([n+]2ccccc2Cc2ccccc2)CC1)/c1cc2c3c(c1)CCCN3CCC2.[Br-].[Br-] (configuration not stated) | 62.5 | 86.5 | 36.5 | 96.9 | 101 | 101
C1=Cc2cc3cc(/C=C(\c4ccccc4)c4cccc[n+]4C4CCC([n+]5ccccc5/C(=C/c5cc6cc7nc(cc8ccc(cc9nc(cc5[nH]6)C=C9)[nH]8)C=C7)c5ccccc5)CC4)c(cc4nc(cc5ccc(cc1n2)[nH]5)C=C4)[nH]3.[Br-].[Br-] (configuration not stated) | 33 | 31.1 | 49.6 | 45.6 | 45.6 | 35.3
C(=C(/c1ccccc1)c1cccc[n+]1C1CCC([n+]2ccccc2/C(=C/c2cc3c4c(c2)CCCN4CCC3)c2ccccc2)CC1)/c1cc2c3c(c1)CCCN3CCC2.[Br-].[Br-] (configuration not stated) | 53.1 | 52.6 | 75.6 | 35.6 | 55.6 | 49.8
O=S(=O)([O-])c1ccccc1/C=C(\c1ccccc1)c1cccc[n+]1C1CCC([n+]2ccccc2/C(=C/c2ccccc2S(=O)(=O)[O-])c2ccccc2)CC1.[Br-].[Br-].[Na+].[Na+] (configuration not stated) | 25.4 | 26.3 | 26.3 | 22.5 | 33.5 | 32.3
O=c1[nH]cc(F)c(=O)[nH]1 [FLUOROURACIL] |  | 6.5 (≈ 50 µM) | 6.9 (≈ 53 µM) |  | 3.5 (≈ 26.9 µM) | 3.2 (≈ 24.6 µM)
C1=Cc2cc3cc(/C=C(\c4ccccc4)c4cccc[n+]4C4CCC([n+]5ccccc5Cc5ccccc5)CC4)c(cc4nc(cc5ccc(cc1n2)[nH]5)C=C4)[nH]3.[Br-].[Br-] (configuration not stated) | 48 | 38.9 | 38.1 | 45.9 | 45.9 | 40.3
O=CC1=Cc2cc3cc(/C=C(\c4ccccc4)c4cccc[n+]4C4CCC([n+]5ccccc5Cc5ccccc5)CC4)c(cc4nc(cc5ccc(cc1n2)[nH]5)C=C4)[nH]3.[Br-].[Br-] (configuration not stated) | 25.2 | 20.3 | 23.3 | 19.1 | 29.3 | 23.7
